From patent publication US20020160968A1, “Inhibitors of cellular niacinamide mononucleotide formation and their use in cancer therapy” (Klinge Pharma GmbH, priority 1999, published 2002)
Where two headings read alike, the source gives them in different places.

Assays:
Type in all cases: cell-based, human
[1] = system: HepG2 cells; test: Cell growth under high-density conditions (SRB assay), delayed cell death (DCD); settings: high density HepG2 cultures; for Tox. (effective (toxic) concentration) in DCD: toxic compounds, rapid decrease in cell numbers; for minimal effective concentration: Homo sapiens
[2] = system: NAD(P) synthesis from niacinamide in HepG2 cells; test: Determination of NAD(P) synthesis from [14C]niacinamide in HepG2 cells
From the text: The effect of the compounds on the synthesis of NAD(P) starting from niacinamide was investigated using for example the tumor cell line HepG2 according to the technique described in the experimental part below.
The inhibition of the NAD(P) synthesis from niacinamide by these compounds was investigated in HepG2 cells as described in the section “Material and Methods”. The compounds of Table 3 a were used at a concentration of 10^−5 M. The compounds of Table 3 b were used at concentrations of at least 10^−5 M, except for Doxorubicin where the concentration was 0.3×10^−5 M. As a control, vehicle treated or untreated cells were used.
In these experiments, a pre-incubation period of 17 hrs with the compounds was used, but it turned out that the pre-incubations period could be shortened, for example to 2 hrs, or skipped completely without affecting the inhibition profile. […] Similar results were obtained with the other specific compounds.
For the detection of specific inhibitors of niacinamide mononucleotide formation the following screening assay is especially useful which comprises the following steps: incubating cultured cells selected from HepG2 cells, U-87 MG cells, MCF-7 M1 cells, Caki-1 cells, HL-60 cells, PC3 cells, U-373 MG cells, A549 cells and KG-1a cells in the presence of [^14C]niacinamide and a compound to be tested for its activity to inhibit the cellular formation of niacinamide mononucleotide; effecting lysis of the cells; isolating and separating the [^14C]-labeled compounds and measuring the amount of formed labeled niacinamide mononucleotide, NAD and NADP. More concretely, cultured cells are seeded in a defined density in culture dishes, followed by incubation in the presence of a test compound and by the addition of [^14C]niacinamide for about 0.1 to 6 hrs. The cells are then lysed with perchloric acid and the resulting extract is neutralized. Finally, the [^14C]-labeled compounds are separated by thin-layer chromatography on cellulose matrices followed by UV detection and autoradiography. Non-radioactive niacinamide derivatives are used as standards. This assay allows simple and effective screening and selection of the compounds according to the invention.
Determination of NAD(P) Synthesis from [^14C]Niacinamide
The cells were detached from 75 cm^2 flasks by removing the growth medium and adding 3 ml trypsin/EDTA solution to each flask. After about 5 minutes incubation at 37° C., when the cells were detached from the surface of the dishes, trypsinization was stopped by adding 3 ml Richter's IMEM-ZO medium containing 10% FCS. The cells were suspended by repeated pipetting. For predilution, an aliquot of 20 μl was added to 10 ml Casyton isotonic solution (No. 043-90037P, Schärfe System, Reutlingen, Germany) using a Sysmex Auto Dilutor Type AD-260 (Toa, Medical Electronics Co. Ltd., Kobe, Japan). The cell number was determined by electronic cell volume measurements and counting with a CASY 1 Cell Counter+Analyzer System, Model TTC (Schärfe System, Reutlingen, Germany) equipped with a 60 μm capillary. Following dilution in IMEM-ZO containing 10% FCS, the cells were finally seeded at a density of 4×10^6/10 ml per sample in Ø 10 cm tissue culture dishes (Greiner, Frickenhausen, Germany) and incubated at 37° C. in a humidified atmosphere of 5% CO2 in air.
After one day, when the cells were adherent to the dishes, the cultures were replenished with IMEM-ZO containing 5% FCS plus the test compound or the vehicle. […] The cells were then incubated at 37° C. for 17 hours in a humidified atmosphere of 5% CO2 in air. This preincubation period is not necessary to achieve a distinct inhibitory action of the compounds and can be shortened for example to 2 or 0 hours. After this period of time, the medium was again discarded and 4 ml HEPES-buffered IMEM-ZO containing the test compound or the vehicle and 0.5 μCi/ml [^14C]niacinamide were added to each culture for an additional 5 hours at 37° C. and 100% humidity. […]

[3] = system: Hep G2 cells; test: Nicotinamide Reversibility Assay / cell growth inhibition of Hep G2 cells (SRB, six days); settings: for Reversal by Niacinamide: Hep G2 cell growth inhibition with added nicotinamide; for IC50: Homo sapiens, HepG2, 144 h, read-out: Cell growth inhibition IC50-values [μM] Hep G2
Description: Nicotinamide Reversibility Assay
Hep G2 cells derived from a human liver carcinoma were plated at a density of 20,000 cells/ml in 12-well plastic dishes. Cultivation occurred in Richters IMEM-ZO nutrient medium with 5% fetal calf serum (FCS) in a tissue culture incubator with a gas mixture of 5% CO2 and 95% air at a temperature of 37° C. One day after plating, the culture medium was aspirated from the cells and replaced by fresh medium which contained the respective concentrations of the test compounds and where applicable of the nicotinamide. For the individual concentrations and the controls without test compounds, three-fold batches were done for each. Three days after the beginning of treatment, the medium was again renewed with the test compounds and where applicable the nicotinamide. After six days of compound incubation, the test was ended and the protein amount in the individual wells was determined with the sulforhodamin-B-method (according. to P. Skehan et al.: New Colorimetric Cytotoxicity Assay for Anticancer-Drug Screening. J. Natl. Cancer Inst. 82: 1107-1112, 1990). The IC50-values were taken from the dose-response curves and given as a comparative measurement for the activity of the test compounds.

[4] = Table 3b, at least 10^-5 M, control 374.00
[5] = Table 3b, toxic compounds at at least 10^-5 M, control 531
[6] = Homo sapiens, read-out: Cellular NAD synthesis inhibition [%]
[7] = Hep G2, six days of compound incubation, SRB
[8] = minimum concentration which, despite initial growth, induced cell death below the number of initially seeded cells, Table 2
[9] = Homo sapiens, Table 3a, compound 10^-5 M, read-out: NAD(P) % of Control
[10] = Table 3a, compound 10^-5 M, 17 hrs pre-incubation, control 302.1
[11] = Table 3a, compound 10^-5 M, control 186.4

**Q.** How did the “Tox. (effective (toxic) concentration) in DCD” value [1] turn out when `NC(=O)c1ccc(N)nc1` [6-Aminonicotinamide, reference compound] was run?
**A.** Tox. 10000 μM

**Q.** What about the inhibition at 30 µM ([2]; Homo sapiens, 30 μM, read-out: Cellular NAD synthesis inhibition [%]) of the same compound?
**A.** 12%

**Q.** And the “NAD(P) % of Control” value ([2]; Table 3b, at least 10^-5 M)?
**A.** 88.0%

**Q.** And the “NAD(P) pmol/mg protein” value [2, 4]?
**A.** 329.34 pmol/mg protein

**Q.** What about the “NAD(P) pmol/10^6 cells” value [2, 5] of the same compound?
**A.** 466.98 pmol/10^6 cells

**Q.** And the “Reversal by Niacinamide” value [3]?
**A.** yes

**Q.** What about the IC50 [3] of the same compound?
**A.** 4 µM

**Q.** What does the source list for `[N-]=[N+]=CC(=O)CC[C@H](N)C(=O)O` [6-Diazo-5-oxo-L-norleucine, reference compound]?
**A.** Tox. (effective (toxic) concentration) in DCD [1]: Tox. 100 μM; inhibition at 10 µM [2, 6]: 0%; NAD(P) % of Control ([2]; Table 3b, at least 10^-5 M): 110.5%; NAD(P) pmol/mg protein [2, 4]: 413.55 pmol/mg protein; NAD(P) pmol/10^6 cells [2, 5]: 586.39 pmol/10^6 cells; Influence of the addition of nicotinamide on the action on cell growth (FIGS. 20 to 27) ([3]; Hep G2): no measurable influence; Reversal by Niacinamide [3]: no; IC50 [3, 7]: 3 µM

**Q.** `[N-]=[N+]=CC(=O)OC[C@H](N)C(=O)O` [Azaserine, reference compound] was tested. Which inhibition at 10 µM [2, 6] did it give?
**A.** 0%

**Q.** And the “NAD(P) % of Control” value ([2]; Table 3b, at least 10^-5 M)?
**A.** 100.0%

**Q.** And the “NAD(P) pmol/mg protein” value [2, 4]?
**A.** 374.23 pmol/mg protein

**Q.** What about the “NAD(P) pmol/10^6 cells” value [2, 5] of the same compound?
**A.** 530.64 pmol/10^6 cells

**Q.** What about the “Influence of the addition of nicotinamide on the action on cell growth (FIGS. 20 to 27)” value ([3]; Hep G2) of the same compound?
**A.** no measurable influence

**Q.** And the “Reversal by Niacinamide” value [3]?
**A.** no

**Q.** What about the IC50 [3, 7] of the same compound?
**A.** 0.7 µM

**Q.** With `O=C(NCCCCC1CCN(C(c2ccccc2)c2ccccc2)CC1)Nc1cccnc1` [Compound K22130, 1-[4-(1-benzhydryl-piperidine-4-yl)-butyl]-3-pyridine-3-yl-urea] as the compound, how does the minimal effective concentration ([1]; Table 5) read?
**A.** 1 µM

**Q.** What about the minimal effective concentration [1, 8] of the same compound?
**A.** 1 µM

**Q.** What about the IC50 [3, 7] of the same compound?
**A.** 0.08 µM

**Q.** With `O=C(NCCCCCCNC(=O)N1CCN(C(c2ccccc2)c2ccccc2)CC1)NCc1cccnc1` [Compound K22132, 4-benzhydryl-piperazine-1-carboxylic acid-[6-(3-pyridine-3-yl-methylureido)-hexyl]-amide] as the compound, how does the minimal effective concentration ([1]; Table 5) read?
**A.** 0.03 µM

**Q.** And the minimal effective concentration [1, 8]?
**A.** 0.1 µM

**Q.** And the inhibition at 10 µM [2, 6]?
**A.** 99%

**Q.** And the activity at 10 µM [2, 9]?
**A.** 1.4%

**Q.** And the “NAD(P) pmol/10^6 cells” value [2, 10]?
**A.** 4.1 pmol/10^6 cells

**Q.** And the “NAD(P) pmol/mg protein” value [2, 11]?
**A.** 2.5 pmol/mg protein

**Q.** And the IC50 [3, 7]?
**A.** 0.02 µM

**Q.** How did the minimal effective concentration ([1]; Table 5) turn out when `S=C(NCCCCCC1CCN(C(c2ccccc2)c2ccccc2)CC1)Nc1cccnc1` [Compound K22234, 1-[5-(1-benzhydryl-piperidine-4-yl)-pentyl]-3-pyridine-3-yl-thiourea] was run?
**A.** 0.3 µM

**Q.** And the minimal effective concentration [1, 8]?
**A.** 0.3 µM

**Q.** And the inhibition at 10 µM [2, 6]?
**A.** 99%

**Q.** And the activity at 10 µM [2, 9]?
**A.** 1.1%

**Q.** And the “NAD(P) pmol/10^6 cells” value [2, 10]?
**A.** 3.4 pmol/10^6 cells

**Q.** What about the “NAD(P) pmol/mg protein” value [2, 11] of the same compound?
**A.** 2.1 pmol/mg protein

**Q.** And the IC50 [3, 7]?
**A.** 0.2 µM

**Q.** Which minimal effective concentration ([1]; Table 5) does the source give for `O=C(CCCCCN1CCN(C(c2ccccc2)c2ccccc2)CC1)NCCc1cccnc1` [Compound K22265, 6-(4-benzhydryl-piperazine-1-yl)-hexanoic acid-(2-pyridine-3-yl-ethyl)-amide] here?
**A.** 3 µM

**Q.** What about the minimal effective concentration [1, 8] of the same compound?
**A.** 3 µM

**Q.** What about the inhibition at 10 µM [2, 6] of the same compound?
**A.** 98%

**Q.** And the activity at 10 µM [2, 9]?
**A.** 2.4%

**Q.** And the “NAD(P) pmol/10^6 cells” value [2, 10]?
**A.** 7.3 pmol/10^6 cells

**Q.** What about the “NAD(P) pmol/mg protein” value [2, 11] of the same compound?
**A.** 4.5 pmol/mg protein

**Q.** What about the IC50 [3, 7] of the same compound?
**A.** 2 µM

**Q.** For `S=C(NCCCCC=C(c1ccccc1)c1ccccc1)N/N=C/c1cccnc1` [Compound K22299, 1-(6,6-diphenyl-5-hexenyl)-3-(pyridine-3-yl-methylene-amino)-thiourea], which minimal effective concentration ([1]; Table 5) is on record?
**A.** 0.3 µM

**Q.** And the minimal effective concentration [1, 8]?
**A.** 0.3 µM

**Q.** What about the inhibition at 10 µM [2, 6] of the same compound?
**A.** 99%

**Q.** And the activity at 10 µM [2, 9]?
**A.** 0.5%

**Q.** And the “NAD(P) pmol/10^6 cells” value [2, 10]?
**A.** 1.6 pmol/10^6 cells

**Q.** What about the “NAD(P) pmol/mg protein” value [2, 11] of the same compound?
**A.** 1.0 pmol/mg protein

**Q.** And the IC50 [3, 7]?
**A.** 0.1 µM

**Q.** How did the inhibition at 3 µM ([2]; Homo sapiens, 3 μM, read-out: Cellular NAD synthesis inhibition [%]) turn out when `COc1cccc2c1C(=O)c1c(O)c3c(c(O)c1C2=O)C[C@@](O)(C(=O)CO)C[C@@H]3O[C@H]1C[C@H](N)[C@H](O)[C@H](C)O1` [Doxorubicin, reference compound] was run?
**A.** 0%

**Q.** And the activity at 3 µM ([2]; Homo sapiens, Table 3b, 0.3×10^-5 M, read-out: NAD(P) % of Control)?
**A.** 102%

**Q.** And the “Influence of the addition of nicotinamide on the action on cell growth (FIGS. 20 to 27)” value ([3]; Hep G2)?
**A.** no measurable influence

**Q.** And the “Reversal by Niacinamide” value [3]?
**A.** no

**Q.** What about the IC50 [3, 7] of the same compound?
**A.** 0.02 µM
